Experimental data as given in patent US9663486B2, “Selectively substituted quinoline compounds” (EISAI R&D MANAGEMENT CO., LTD., priority 2013, dated 2017).

Target: T1, mouse TLR7 (Mus musculus, UniProt P58681)
T1 construct: tissue Jackson Labs; host or cells: live female BALB/c mice
T1 sequence (P58681 27-1050): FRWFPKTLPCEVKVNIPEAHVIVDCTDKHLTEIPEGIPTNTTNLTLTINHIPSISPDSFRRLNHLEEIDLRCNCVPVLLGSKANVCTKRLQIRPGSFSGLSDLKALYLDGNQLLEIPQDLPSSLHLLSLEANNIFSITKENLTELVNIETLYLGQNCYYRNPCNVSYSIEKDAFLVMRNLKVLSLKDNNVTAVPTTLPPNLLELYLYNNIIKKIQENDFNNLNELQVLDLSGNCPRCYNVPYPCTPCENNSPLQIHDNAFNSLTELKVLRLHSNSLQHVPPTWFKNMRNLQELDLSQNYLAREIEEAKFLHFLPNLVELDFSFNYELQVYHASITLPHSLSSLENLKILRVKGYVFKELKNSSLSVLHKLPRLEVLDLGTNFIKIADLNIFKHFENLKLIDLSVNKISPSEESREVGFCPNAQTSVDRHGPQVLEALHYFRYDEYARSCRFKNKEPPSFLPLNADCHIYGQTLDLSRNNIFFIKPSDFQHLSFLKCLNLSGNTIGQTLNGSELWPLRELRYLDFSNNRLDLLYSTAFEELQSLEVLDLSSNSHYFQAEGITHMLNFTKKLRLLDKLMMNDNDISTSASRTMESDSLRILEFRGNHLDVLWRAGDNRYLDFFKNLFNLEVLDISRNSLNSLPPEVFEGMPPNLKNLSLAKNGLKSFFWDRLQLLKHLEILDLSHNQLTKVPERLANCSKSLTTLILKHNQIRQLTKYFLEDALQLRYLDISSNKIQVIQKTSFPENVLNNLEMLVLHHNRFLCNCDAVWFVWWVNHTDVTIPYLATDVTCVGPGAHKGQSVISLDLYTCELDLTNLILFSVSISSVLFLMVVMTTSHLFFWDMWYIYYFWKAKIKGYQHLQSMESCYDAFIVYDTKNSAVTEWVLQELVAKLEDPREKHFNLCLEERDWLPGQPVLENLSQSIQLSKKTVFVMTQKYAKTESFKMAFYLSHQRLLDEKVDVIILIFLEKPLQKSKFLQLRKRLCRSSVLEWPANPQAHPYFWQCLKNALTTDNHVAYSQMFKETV
Assay: Short-term in vivo (STIV) assay, plasma IL-6 after R848
Conditions: plasma IL-6 after R848 s.c., BALB/c mice
Experimental: To assess compound potency in vivo against mouse TLR7, a short-term in vivo (STIV) assay was utilized. Briefly, mice were orally dosed with compounds and at various time points afterwards were injected subcutaneously with agonist R848 to stimulate TLR7. The plasma IL-6 level following R848 stimulation was then measured by ELISA to assess compound potency and duration-of-action. […] Therefore, the activity of compounds in the STIV assay can be confidently attributed to their modulation of the TLR7 pathway.
Six to eight week old female BALB/c mice (Jackson Labs, Bar Harbor, Me.) were dosed by oral gavage in 200 ul volume with antagonist compounds formulated in 0.5% aqueous methyl-cellulose (Sigma, St. Louis, Mo.). At various time points afterwards, mice were injected subcutaneously (s.c.) in 100 ul volume with 15 ug R848 (Resiquimod; GLSynthesis, Worcester, Mass.) to stimulate TLR7. Blood plasma was collected by cardiac puncture, and levels of IL-6 at 1.5 hours after TLR7 stimulation were then assessed by standard ELISA procedure according to the manufacturer's recommended protocol (R&D Systems).

C[C@H]1C[C@@H](N)CN(c2ccc(C#N)c3ncccc23)C1 [ER-888840, 5-((3R,5S)-3-amino-5-methylpiperidin-1-yl)quinoline-8-carbonitrile]
% Suppression vs. Vehicle (6 h after oral dose, 33 mg/kg): 100%
% Suppression vs. Vehicle (13 hr after oral dose, 11 mg/kg): 53%
% Suppression vs. Vehicle (13 hr after oral dose, 33 mg/kg): 95%
% Suppression vs. Vehicle (13 hr after oral dose, 100 mg/kg): 100%
% Suppression vs. Vehicle (24 hr after oral dose, 11 mg/kg): 24%
% Suppression vs. Vehicle (24 hr after oral dose, 33 mg/kg): 0%
% Suppression vs. Vehicle (24 hr after oral dose, 100 mg/kg): 98%
% Suppression vs. Vehicle (24 hr after oral dose, 300 mg/kg): 100%
